1 compound from patent US4588740A, “Pharmaceutical methods using 4-aminoalkyl-2(3H)-indolones” (priority 1983, dated 1986) can be followed below.

Data set [1] in a line: absorption from the gastrointestinal tract of rats. The note with it: oral, compared with the 7-hydroxy congener. It counts as in vivo, rat.
In data set [2] the test system is DOCA-salt hypertensive rats. In words: intravenous infusion in DOCA-salt hypertensive rats. It counts as in vivo, rat. The source says: (§1) Intravenous infusion of this species of this invention in the DOCA-salt hypertensive and spontaneously hypertensive rats reduced blood pressure and heart rate.
Data set [3] has as its system conscious DOCA salt hypertensive rats. In words: oral dosing in conscious DOCA salt hypertensive rats. It counts as in vivo, rat. As to conditions: oral doses of 10 mg/kg.
A further data set addresses T1, D2 -receptors (Oryctolagus cuniculus, UniProt G1T1Q0).
T1 construct: In the perfused rabbit ear artery test; from tissue; host or cells: perfused rabbit ear artery (receptors on sympathetic nerve terminals)
The data set can be described thus: perfused rabbit ear artery test.

The subject of another data set is perfused hind limb. The data set can be described thus: perfused hind limb preparation in vivo in the dog.
In data set [4] the test system is spontaneously hypertensive rats. The data set can be described thus: intravenous infusion in spontaneously hypertensive rats. In kind it is in vivo, rat.
From the text: as §1

A further data set has as its system cardio-accelerator nerve. In words: cardio-accelerator nerve preparation in vivo in the dog.
Data set [5] has as its system presynaptic α-dopaminergic receptors (D2 -receptors). In words: D2-agonist selectivity (general statement). The note with it: peripheral. The source says: Otherwise speaking, the main focus of action is at the presynaptic α-dopaminergic receptors which may also be called "D2 -receptors." Activation of the D2 -receptors on the sympathetic nerve terminals inhibits the release of norepinephrine, thereby, promoting vasodilation, among other beneficial cardiovascular actions and decreasing sympathetic side-effects caused by norepinephrine release in certain abnormal cardiovascular conditions.

T1 sequence (G1T1Q0 1-443): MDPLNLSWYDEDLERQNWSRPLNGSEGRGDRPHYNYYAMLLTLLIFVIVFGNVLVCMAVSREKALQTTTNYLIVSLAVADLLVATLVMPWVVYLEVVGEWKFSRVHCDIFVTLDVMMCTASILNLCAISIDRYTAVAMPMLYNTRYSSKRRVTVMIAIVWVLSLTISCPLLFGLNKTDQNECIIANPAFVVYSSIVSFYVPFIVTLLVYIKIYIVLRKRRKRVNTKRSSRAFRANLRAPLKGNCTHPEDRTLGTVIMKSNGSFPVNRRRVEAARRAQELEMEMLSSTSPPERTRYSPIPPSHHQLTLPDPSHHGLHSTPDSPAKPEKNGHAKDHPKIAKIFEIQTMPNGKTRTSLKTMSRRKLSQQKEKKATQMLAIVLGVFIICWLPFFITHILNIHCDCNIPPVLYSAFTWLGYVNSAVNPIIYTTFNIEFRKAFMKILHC

With `CCCN(CCC)CCc1cccc2c1CC(=O)N2.Cl` [4-(2-di-n-propylaminoethyl)-2(3H)-indolone hydrochloride], the “absorption from the gastrointestinal tract” value in data set [1] was “more readily absorbed”. In addition, the blood pressure entry in data set [2] and in data set [4] was “reduced” throughout. Further, the heart rate result in data set [2] and in data set [4] was “reduced” in each case. Moreover, in data set [3], the anti-hypertensive effect result is on record as “demonstrated an anti-hypertensive effect”. The EC50 on D2 -receptors was determined as 72 nM. Also, the activity in vivo result in the data set with perfused hind limb and with cardio-accelerator nerve was “active” throughout. In the data set on perfused hind limb, the tachyphylaxis result was “did not cause tachyphylaxis”. Further, the D2-agonist selectivity result in data set [5] is “selective peripheral D2 -agonists”.
